Laboratory results reported in patent US20240010726A1, “LFA-1 SIGNALLING MEDIATOR FOR USE IN CANCER THERAPY” (Universität Basel, priority 2020, published 2024).

Tests used:
human EM CD8 T cells = test: Cytometric bead array of cytokines in EM CD8 T cell culture supernatants; type: cell-based; conditions: Mg^2+-restricted (0 mM) vs 1.2 mM Mg^2+; 24 h
Protocol: FIG. 2: Extracellular magnesium promotes memory-specific activation via LFA-1. Glycolytic switch of human EM CD8 T cells (a) and naïve CD8 T cells (b) subsets upon injection of anti-CD3 Ab only, or anti-CD3 and anti-CD28 Ab, was assessed by metabolic flux analysis in medium containing either 1.2 mM Mg^2+, 0 mM Mg^2+, or medium which was reconstituted from 0 mM to 1.2 mM Mg^2+ immediately prior to activation (0→1.2 mM Mg^2+). (a) Results for human effector memory (EM) and (b) for human naïve CD8 T cells. Glycolytic switch was quantified by subtracting […] measurements. (c) Flow cytometric analysis of surface activation markers on human EM CD8 T cells 24 hours after activation by plate-bound anti-CD3 Ab and soluble anti-CD28 Ab, in 1.2 mM and 0 mM Mg^2+ media, respectively. (d) Abundance of inflammatory cytokines in corresponding EM CD8 T cell culture supernatants, determined by CBA. (e) CD11a (LFA-1) surface expression on human naïve and EM CD8 T cells as well PHA T cell blasts. Flow cytometry-based assessment of total LFA-1 expression assessed by mAb TS2/4 (f), closed conformation of αL by mAb HI111 (g), extended conformation of LFA-1 by mAb Kim127 (h), open head-piece conformation of LFA-1 by mAb m24 (i), phosphorylation of focal adhesion kinase (FAK) […] as well TNF expression (k)±TCR-induced activation in different extracellular Mg^2+ concentrations. (l) Flow cytometry-based assessment of LFA-1 with open-head piece conformation on human EM and naïve CD8 T cells using the open head-piece reporter mAb m24. (m) Assessment of glycolytic switch of EM CD8 T cells. (n) Assessment of glycolytic switch of naïve CD8 T cells. […] Cytokine concentrations in cell culture supernatants were determined using the LegendPlex cytrometric bead Array human […]) according to manufacturer's instructions.

[1] = tested on: murine WT and LFA-1^−/− CTLs; test: Degranulation marker CD107a on murine WT and LFA-1−/− CTLs; type: cell-based; conditions: 8 h anti-CD3/anti-CD28 Ab; 0 mM vs 1.2 mM Mg^2+
[2] = tested on: anti-PSMA CAR T cells co-cultured with PC3-PIP; test: Cytokine release assay of anti-PSMA CAR T cells (IFNγ ELISA); type: cell-based, human; conditions: 24 h; 0 mM vs 0.6 mM Mg^2+
Protocol: FIG. 3: Magnesium regulates LFA-1 mediated T cell activation and cytotoxicity as well BiTE- and CAR T-cell functionality. (a) Glycolytic switch of murine WT and LFA-1^−/− CTLs upon injection of anti-CD3/28 Ab in medium containing 1.2 mM Mg^2+ and 0 mM Mg^2+, presented as quantification of summarized data with n=4 mice. (b) Calcium flux in WT and LFA-1^−/− Jurkat T cells stimulated with anti-CD3 Ab in 1.2 mM and 0 mM Mg^2+ medium, respectively. Cells were loaded with Fluo4, and signal intensity as recorded by plate reader, was normalized to unstimulated baseline values. […] Quantified results of n=3 mice with 3 technical replicates each. […] The effector to target cell ratio was 3:1. Results are quantified of n=3 mice with 3 technical replicates each. (e) Representative CD11a (LFA-1) surface expression on human naïve and EM CD8 T cells, PHA T cell blasts and REP T cells, assessed by flow cytometry. […] The effector to target cell ratio was 1:1. Data is presented as quantified results of n=5 healthy donors (f, g, h), n=3 healthy donors with 2 technical replicates each or n=1 healthy donor with 4 technical replicates (j). […] Data is presented as quantified results of n=1 healthy donor with 4 technical replicates. […] (p) Abundance of IFNγ in cell culture supernatants corresponding to the conditions depicted in (o) at 24 hours was determined by ELISA (n=8, 3 independent experiments). […]

[Mg+2] [Mg^2+, Magnesium]
IFNγ secretion (human EM CD8 T cells): decreased production | IL-2 secretion (human EM CD8 T cells): decreased production | TNF secretion (human EM CD8 T cells): decreased production | CD107a degranulation of LFA-1^−/− CTLs [1]: unaffected | CD107a degranulation of WT CTLs [1]: reduced CTL degranulation | IFNγ release [2]: reduced inflammatory IFNγ release
